Assay results from the NIST ThermoML archive (doi:10.1016/j.jct.2008.05.014).

Experiment: xn = mol fraction of the nth substance listed
Conditions: Liquid; for speed of sound: Pulse-echo method

CCCCCCCCCCCC [dodecane] + CCCCCCC
Conditions	mass density [kg/m3]	speed of sound [m/s]
298.15 K, 91180 kPa, x2 = 0.5003	–	1642.1
298.15 K, 101320 kPa, x2 = 0.1014	–	1704.4
298.15 K, 101320 kPa, x2 = 0.4999	–	1676
298.15 K, 101320 kPa, x2 = 0.5003	–	1676.4
298.16 K, 101 kPa, x2 = 0	–	1278.9
298.16 K, 101 kPa, x2 = 0.3002	–	1246.5
298.16 K, 101 kPa, x2 = 0.3996	726.184	–
298.16 K, 101 kPa, x2 = 0.6	713.735	1205.1
298.16 K, 101 kPa, x2 = 0.8995	–	1151.9
298.16 K, 15200 kPa, x2 = 0	–	1365.9
298.16 K, 15200 kPa, x2 = 0.3007	–	1336
298.16 K, 15200 kPa, x2 = 0.4999	–	1314.6
298.16 K, 15200 kPa, x2 = 0.7007	–	1286.6
298.16 K, 30390 kPa, x2 = 0	–	1440
298.16 K, 30390 kPa, x2 = 0.3007	–	1413
298.16 K, 30390 kPa, x2 = 0.7007	–	1368.2
298.16 K, 45580 kPa, x2 = 0	–	1507
298.16 K, 45590 kPa, x2 = 0.3007	–	1481.9
298.16 K, 60790 kPa, x2 = 0	–	1568
298.16 K, 75990 kPa, x2 = 0	–	1625.2
298.16 K, 75990 kPa, x2 = 0.3007	–	1602.7
298.16 K, 91180 kPa, x2 = 0	–	1677.7
298.16 K, 91180 kPa, x2 = 0.3007	–	1656.7
298.16 K, 91180 kPa, x2 = 0.7007	–	1623.2
298.16 K, 101320 kPa, x2 = 0	–	1711.1
298.16 K, 101320 kPa, x2 = 0.3007	–	1690.7
298.16 K, 101320 kPa, x2 = 0.7007	–	1658.1
298.17 K, 101 kPa, x2 = 0.7002	–	1188.8
298.17 K, 101 kPa, x2 = 0.8	–	1171.2
298.17 K, 15200 kPa, x2 = 0.1014	–	1356.6
298.17 K, 15200 kPa, x2 = 0.8496	–	1264.5
298.17 K, 30390 kPa, x2 = 0.8496	–	1348.6
298.17 K, 45590 kPa, x2 = 0.8496	–	1422.9
298.17 K, 60790 kPa, x2 = 0.8496	–	1489.9
298.17 K, 75990 kPa, x2 = 0.8496	–	1551
298.17 K, 91180 kPa, x2 = 0.8496	–	1608.3
298.17 K, 101320 kPa, x2 = 0.8496	–	1644.1
298.18 K, 101 kPa, x2 = 0.1007	–	1268.9
298.18 K, 101 kPa, x2 = 0.3996	–	1233.8
298.18 K, 101 kPa, x2 = 0.5002	–	1219.9
298.18 K, 30390 kPa, x2 = 0.1014	–	1431.7
298.19 K, 101 kPa, x2 = 0.2001	–	1258.1
303.12 K, 15200 kPa, x2 = 0.9391	–	1228.3
303.12 K, 30390 kPa, x2 = 0.9391	–	1315.5
303.12 K, 30390 kPa, x2 = 0.97	–	1312
303.12 K, 45590 kPa, x2 = 0.9391	–	1392
303.12 K, 45590 kPa, x2 = 0.97	–	1388.9
303.12 K, 60790 kPa, x2 = 0.9391	–	1461.1
303.12 K, 60790 kPa, x2 = 0.97	–	1458.4
303.12 K, 75990 kPa, x2 = 0.9391	–	1523.8
303.12 K, 75990 kPa, x2 = 0.97	–	1521.5
303.12 K, 91180 kPa, x2 = 0.9391	–	1582
303.12 K, 91180 kPa, x2 = 0.97	–	1579.9
303.12 K, 101320 kPa, x2 = 0.9391	–	1618.9
303.12 K, 101320 kPa, x2 = 0.97	–	1616.9
303.13 K, 15200 kPa, x2 = 0.97	–	1224
303.13 K, 101320 kPa, x2 = 0.1014	–	1691.2
303.13 K, 101320 kPa, x2 = 0.5003	–	1663
303.14 K, 101 kPa, x2 = 0.6	–	1184.8
303.14 K, 101 kPa, x2 = 0.8995	–	1130.7
303.14 K, 15200 kPa, x2 = 0.1014	–	1339.1
303.14 K, 15200 kPa, x2 = 0.4999	–	1296.5
